The NIST ThermoML archive (doi:10.1016/j.jct.2019.03.023)
Values joined by “and” are separate entries in the source; they are usually repeats but may differ in a detail not shown here. Equal values may be shown once. ± gives the expanded uncertainty stated by the source.

Experiment: molar heat capacity at constant volume
Conditions: Vacuum adiabatic calorimetry

CC(C)O [propan-2-ol]
molar heat capacity at constant volume (508.38 K, Fluid (supercritical or subcritical phases), Mass density=274 kg/m3): 423.79 ± 13 J/K/mol
molar heat capacity at constant volume (508.38 K, Fluid (supercritical or subcritical phases), Mass density=281.9 kg/m3): 417.78 ± 13 J/K/mol
molar heat capacity at constant volume (508.38 K, Fluid (supercritical or subcritical phases), Mass density=288.99 kg/m3): 404.68 ± 12 J/K/mol
molar heat capacity at constant volume (508.38 K, Fluid (supercritical or subcritical phases), Mass density=293.3 kg/m3): 398.73 ± 12 J/K/mol
molar heat capacity at constant volume (508.38 K, Fluid (supercritical or subcritical phases), Mass density=343.1 kg/m3): 178 ± 5.3 J/K/mol
molar heat capacity at constant volume (508.47 K, Fluid (supercritical or subcritical phases), Mass density=234.3 kg/m3): 474.81 ± 14 J/K/mol
molar heat capacity at constant volume (508.47 K, Fluid (supercritical or subcritical phases), Mass density=255.8 kg/m3): 454.98 ± 14 J/K/mol
molar heat capacity at constant volume (508.47 K, Fluid (supercritical or subcritical phases), Mass density=266.3 kg/m3): 444.04 ± 13 J/K/mol
molar heat capacity at constant volume (508.47 K, Fluid (supercritical or subcritical phases), Mass density=274 kg/m3): 437.73 ± 13 J/K/mol
molar heat capacity at constant volume (508.47 K, Fluid (supercritical or subcritical phases), Mass density=281.9 kg/m3): 430.04 ± 13 J/K/mol
molar heat capacity at constant volume (508.47 K, Fluid (supercritical or subcritical phases), Mass density=288.99 kg/m3): 411.05 ± 12 J/K/mol
molar heat capacity at constant volume (508.47 K, Fluid (supercritical or subcritical phases), Mass density=293.3 kg/m3): 405.04 ± 12 J/K/mol
molar heat capacity at constant volume (508.47 K, Fluid (supercritical or subcritical phases), Mass density=324.5 kg/m3): 207.09 ± 6.2 J/K/mol
molar heat capacity at constant volume (508.47 K, Fluid (supercritical or subcritical phases), Mass density=329.2 kg/m3): 191.7 ± 5.8 J/K/mol
molar heat capacity at constant volume (508.47 K, Fluid (supercritical or subcritical phases), Mass density=343.1 kg/m3): 175.96 ± 5.3 J/K/mol
molar heat capacity at constant volume (508.51 K, Fluid (supercritical or subcritical phases), Mass density=234.3 kg/m3): 487.37 ± 15 J/K/mol and 279.44 ± 8.4 J/K/mol
molar heat capacity at constant volume (508.51 K, Gas): 279.44 ± 9.6 J/K/mol
molar heat capacity at constant volume (508.56 K, Fluid (supercritical or subcritical phases), Mass density=234.3 kg/m3): 267.78 ± 8.1 J/K/mol
molar heat capacity at constant volume (508.56 K, Fluid (supercritical or subcritical phases), Mass density=255.8 kg/m3): 471.14 ± 14 J/K/mol
molar heat capacity at constant volume (508.56 K, Fluid (supercritical or subcritical phases), Mass density=266.3 kg/m3): 462.31 ± 14 J/K/mol
molar heat capacity at constant volume (508.56 K, Fluid (supercritical or subcritical phases), Mass density=274 kg/m3): 451.49 ± 14 J/K/mol
molar heat capacity at constant volume (508.56 K, Fluid (supercritical or subcritical phases), Mass density=281.9 kg/m3): 440.92 ± 13 J/K/mol
molar heat capacity at constant volume (508.56 K, Fluid (supercritical or subcritical phases), Mass density=288.99 kg/m3): 425.11 ± 13 J/K/mol
molar heat capacity at constant volume (508.56 K, Fluid (supercritical or subcritical phases), Mass density=293.3 kg/m3): 419.1 ± 13 J/K/mol
molar heat capacity at constant volume (508.56 K, Fluid (supercritical or subcritical phases), Mass density=324.5 kg/m3): 206.31 ± 6.2 J/K/mol
molar heat capacity at constant volume (508.56 K, Fluid (supercritical or subcritical phases), Mass density=343.1 kg/m3): 177.52 ± 5.3 J/K/mol
molar heat capacity at constant volume (508.57 K, Fluid (supercritical or subcritical phases), Mass density=329.2 kg/m3): 186.9 ± 5.6 J/K/mol
molar heat capacity at constant volume (508.61 K, Fluid (supercritical or subcritical phases), Mass density=293.3 kg/m3): 422.11 ± 13 J/K/mol
molar heat capacity at constant volume (508.66 K, Fluid (supercritical or subcritical phases), Mass density=234.3 kg/m3): 258.83 ± 7.8 J/K/mol
molar heat capacity at constant volume (508.66 K, Fluid (supercritical or subcritical phases), Mass density=255.8 kg/m3): 495.78 ± 15 J/K/mol
molar heat capacity at constant volume (508.66 K, Fluid (supercritical or subcritical phases), Mass density=266.3 kg/m3): 484.85 ± 15 J/K/mol
molar heat capacity at constant volume (508.66 K, Fluid (supercritical or subcritical phases), Mass density=274 kg/m3): 472.11 ± 14 J/K/mol
molar heat capacity at constant volume (508.66 K, Fluid (supercritical or subcritical phases), Mass density=281.9 kg/m3): 456.18 ± 14 J/K/mol
molar heat capacity at constant volume (508.66 K, Fluid (supercritical or subcritical phases), Mass density=288.99 kg/m3): 439.35 ± 13 J/K/mol
molar heat capacity at constant volume (508.66 K, Fluid (supercritical or subcritical phases), Mass density=293.3 kg/m3): 428.48 ± 13 J/K/mol
molar heat capacity at constant volume (508.66 K, Fluid (supercritical or subcritical phases), Mass density=324.5 kg/m3): 201.38 ± 6.1 J/K/mol
molar heat capacity at constant volume (508.66 K, Fluid (supercritical or subcritical phases), Mass density=343.1 kg/m3): 178 ± 5.3 J/K/mol
molar heat capacity at constant volume (508.67 K, Fluid (supercritical or subcritical phases), Mass density=274 kg/m3): 481 ± 14 J/K/mol
molar heat capacity at constant volume (508.67 K, Fluid (supercritical or subcritical phases), Mass density=329.2 kg/m3): 188.1 ± 5.6 J/K/mol
molar heat capacity at constant volume (508.68 K, Fluid (supercritical or subcritical phases), Mass density=281.9 kg/m3): 461.83 ± 14 J/K/mol
molar heat capacity at constant volume (508.68 K, Fluid (supercritical or subcritical phases), Mass density=293.3 kg/m3): 434.49 ± 13 J/K/mol and 253.6 ± 7.6 J/K/mol
molar heat capacity at constant volume (508.68 K, Liquid): 253.6 ± 8.3 J/K/mol
molar heat capacity at constant volume (508.69 K, Fluid (supercritical or subcritical phases), Mass density=255.8 kg/m3): 507.8 ± 15 J/K/mol
molar heat capacity at constant volume (508.69 K, Fluid (supercritical or subcritical phases), Mass density=274 kg/m3): 491.94 ± 15 J/K/mol
molar heat capacity at constant volume (508.69 K, Fluid (supercritical or subcritical phases), Mass density=288.99 kg/m3): 447.41 ± 13 J/K/mol and 264.72 ± 7.9 J/K/mol
molar heat capacity at constant volume (508.69 K, Liquid): 264.72 ± 9 J/K/mol
